According to PubChem BioAssay (NCI):
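96-well plates; 48 h exposure; 5 concentrations. Endpoints by linear interpolation between flanking doses. Not reached: highest tested concentration assigned. TGI: concentration producing complete growth inhibition.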

Tests used:
Assay in all cases: NCI-60 cell line screen, 48 h
MALME-3M melanoma = test system: MALME-3M melanoma
HCT-15 colon = test system: HCT-15 colon
KM20L2 colon = test system: KM20L2 colon
DMS 273 small cell lung = test system: DMS 273 small cell lung
SF-295 CNS = test system: SF-295 CNS
KM12 colon = test system: KM12 colon
DLD-1 colon = test system: DLD-1 colon
EKVX NSCLC = test system: EKVX NSCLC
NCI-H460 lung = test system: NCI-H460 lung
CCRF-CEM leukemia = test system: CCRF-CEM leukemia
HCC-2998 colon = test system: HCC-2998 colon
XF 498 CNS = test system: XF 498 CNS

N#CCN1C(=O)c2cc([N+](=O)[O-])cc3cc([N+](=O)[O-])cc(c23)C1=O
TGI (MALME-3M melanoma): 28 µM
TGI (HCT-15 colon): 20.3 µM
TGI (KM20L2 colon): 23.6 µM
TGI (DMS 273 small cell lung): > 100 µM
TGI (SF-295 CNS): > 100 µM
TGI (KM12 colon): 28 µM
TGI (DLD-1 colon): 29.4 µM
TGI (EKVX NSCLC): 55.8 µM
TGI (NCI-H460 lung): 45.9 µM
TGI (CCRF-CEM leukemia): 17.7 µM
TGI (HCC-2998 colon): 29.2 µM
TGI (XF 498 CNS): 25 µM

CCOC(=O)C1Nc2ccccc2[C@H]2OCC[C@@H]12 (stereo partly specified)
TGI (MALME-3M melanoma): > 100 µM
TGI (HCT-15 colon): > 100 µM
TGI (KM20L2 colon): > 100 µM
TGI (DMS 273 small cell lung): > 100 µM
TGI (SF-295 CNS): > 100 µM
TGI (KM12 colon): > 100 µM
TGI (DLD-1 colon): > 100 µM
TGI (EKVX NSCLC): > 100 µM
TGI (NCI-H460 lung): > 100 µM
TGI (CCRF-CEM leukemia): > 100 µM
TGI (HCC-2998 colon): > 100 µM
TGI (XF 498 CNS): > 100 µM

O=C1OC(=O)c2c1c(-c1ccccc1)nc1ccccc21
TGI (MALME-3M melanoma): > 100 µM
TGI (HCT-15 colon): > 100 µM
TGI (KM20L2 colon): > 100 µM
TGI (DMS 273 small cell lung): > 100 µM
TGI (SF-295 CNS): > 100 µM
TGI (KM12 colon): > 100 µM
TGI (DLD-1 colon): > 100 µM
TGI (EKVX NSCLC): > 100 µM
TGI (NCI-H460 lung): > 100 µM
TGI (CCRF-CEM leukemia): > 100 µM
TGI (HCC-2998 colon): > 100 µM
TGI (XF 498 CNS): > 100 µM

O=C(O)CCNS(=O)(=O)c1ccc([N+](=O)[O-])cc1
TGI (MALME-3M melanoma): > 100 µM
TGI (HCT-15 colon): > 100 µM
TGI (KM20L2 colon): > 100 µM
TGI (DMS 273 small cell lung): > 100 µM
TGI (SF-295 CNS): > 100 µM
TGI (KM12 colon): > 100 µM
TGI (DLD-1 colon): > 100 µM
TGI (EKVX NSCLC): > 100 µM
TGI (NCI-H460 lung): > 100 µM
TGI (CCRF-CEM leukemia): > 100 µM
TGI (HCC-2998 colon): > 100 µM
TGI (XF 498 CNS): > 100 µM

NC1=NC(=O)C(CC(=O)Nc2ccc(Cl)cc2Cl)S1 (stereo unspecified)
TGI (MALME-3M melanoma): > 100 µM
TGI (HCT-15 colon): > 100 µM
TGI (KM20L2 colon): > 100 µM
TGI (DMS 273 small cell lung): > 100 µM
TGI (SF-295 CNS): > 100 µM
TGI (KM12 colon): > 100 µM
TGI (DLD-1 colon): > 100 µM
TGI (EKVX NSCLC): > 100 µM
TGI (NCI-H460 lung): > 100 µM
TGI (CCRF-CEM leukemia): > 100 µM
TGI (HCC-2998 colon): > 100 µM
TGI (XF 498 CNS): > 100 µM

CC1=C(CC2C(=O)N(c3ccccc3)S(=O)(=O)NC2C)C(=O)N(c2ccccc2)S(=O)(=O)N1C (stereo unspecified)
TGI (MALME-3M melanoma): > 100 µM
TGI (HCT-15 colon): > 100 µM
TGI (KM20L2 colon): > 100 µM
TGI (DMS 273 small cell lung): > 100 µM
TGI (SF-295 CNS): > 100 µM
TGI (KM12 colon): > 100 µM
TGI (DLD-1 colon): > 100 µM
TGI (EKVX NSCLC): > 100 µM
TGI (NCI-H460 lung): > 100 µM
TGI (CCRF-CEM leukemia): > 100 µM
TGI (HCC-2998 colon): > 100 µM
TGI (XF 498 CNS): > 100 µM

CC1=C(C(=O)Nc2ccc(Cl)c(Cl)c2)C(c2ccc([N+](=O)[O-])cc2)C(C(=O)Nc2ccc(Cl)c(Cl)c2)=C(C)N1
TGI (MALME-3M melanoma): 7.06 µM
TGI (HCT-15 colon): 7.88 µM
TGI (KM20L2 colon): 4.3 µM
TGI (DMS 273 small cell lung): 9.14 µM
TGI (SF-295 CNS): 9.24 µM
TGI (KM12 colon): 3.63 µM
TGI (DLD-1 colon): > 41.7 µM
TGI (EKVX NSCLC): 15.4 µM
TGI (NCI-H460 lung): 6.15 µM
TGI (HCC-2998 colon): 4.98 µM
TGI (XF 498 CNS): 4.38 µM

N#CNc1nc(N)c(-c2ccc(Cl)cc2)c(C(=O)Nc2nccs2)n1
TGI (MALME-3M melanoma): > 100 µM
TGI (HCT-15 colon): > 100 µM
TGI (KM20L2 colon): > 100 µM
TGI (DMS 273 small cell lung): > 100 µM
TGI (SF-295 CNS): > 100 µM
TGI (KM12 colon): > 100 µM
TGI (DLD-1 colon): > 100 µM
TGI (EKVX NSCLC): > 100 µM
TGI (NCI-H460 lung): > 100 µM
TGI (HCC-2998 colon): > 100 µM
TGI (XF 498 CNS): > 100 µM

COc1ccc(-c2cc(=O)c3c(O)cccc3o2)c(OC)c1OC
TGI (MALME-3M melanoma): > 100 µM
TGI (HCT-15 colon): > 100 µM
TGI (KM20L2 colon): > 100 µM
TGI (DMS 273 small cell lung): > 100 µM
TGI (SF-295 CNS): > 100 µM
TGI (KM12 colon): > 100 µM
TGI (DLD-1 colon): > 100 µM
TGI (NCI-H460 lung): > 100 µM
TGI (CCRF-CEM leukemia): > 100 µM
TGI (HCC-2998 colon): > 100 µM
TGI (XF 498 CNS): > 100 µM

O=C1c2ccccc2N2OC3(N4CCCC4)CCCCC3C12c1ccccc1 (stereo unspecified)
TGI (MALME-3M melanoma): 38.7 µM
TGI (HCT-15 colon): > 100 µM
TGI (KM20L2 colon): > 100 µM
TGI (DMS 273 small cell lung): 30.9 µM
TGI (SF-295 CNS): 32.7 µM
TGI (DLD-1 colon): 46.3 µM
TGI (EKVX NSCLC): > 100 µM
TGI (CCRF-CEM leukemia): 47.5 µM
TGI (HCC-2998 colon): > 100 µM
TGI (XF 498 CNS): 41.1 µM

O=C1C=C(O)C(=Cc2c(O)cc(O)cc2O)C(O)=C1
TGI (MALME-3M melanoma): > 100 µM
TGI (HCT-15 colon): > 100 µM
TGI (KM20L2 colon): > 100 µM
TGI (DMS 273 small cell lung): > 100 µM
TGI (SF-295 CNS): > 100 µM
TGI (KM12 colon): > 100 µM
TGI (DLD-1 colon): > 100 µM
TGI (EKVX NSCLC): > 100 µM
TGI (NCI-H460 lung): > 100 µM
TGI (CCRF-CEM leukemia): > 100 µM
TGI (HCC-2998 colon): > 100 µM
TGI (XF 498 CNS): > 100 µM

Nc1nc(N)c(CCCCc2ccccc2)c(N)n1
TGI (MALME-3M melanoma): > 100 µM
TGI (HCT-15 colon): > 100 µM
TGI (KM20L2 colon): > 100 µM
TGI (DMS 273 small cell lung): > 100 µM
TGI (SF-295 CNS): > 100 µM
TGI (KM12 colon): > 100 µM
TGI (DLD-1 colon): > 100 µM
TGI (EKVX NSCLC): > 100 µM
TGI (NCI-H460 lung): > 100 µM
TGI (CCRF-CEM leukemia): > 100 µM
TGI (HCC-2998 colon): > 100 µM
TGI (XF 498 CNS): > 100 µM

Oc1cc(-n2cccn2)c(O)cc1-n1cccn1
TGI (MALME-3M melanoma): > 78.1 µM
TGI (HCT-15 colon): 51.6 µM
TGI (KM20L2 colon): > 100 µM
TGI (DMS 273 small cell lung): > 58.2 µM
TGI (SF-295 CNS): 60.2 µM
TGI (KM12 colon): > 86.5 µM
TGI (DLD-1 colon): > 94.8 µM
TGI (EKVX NSCLC): > 83.3 µM
TGI (NCI-H460 lung): > 100 µM
TGI (CCRF-CEM leukemia): 19.6 µM
TGI (HCC-2998 colon): > 100 µM
TGI (XF 498 CNS): 32.7 µM

CC(C)(C)c1cc2nc(c1)C(C(F)(F)F)(C(F)(F)F)OB(Br)OC2(C(F)(F)F)C(F)(F)F
TGI (MALME-3M melanoma): 4.42 µM
TGI (HCT-15 colon): 13.8 µM
TGI (KM20L2 colon): 1.25 µM
TGI (DMS 273 small cell lung): 0.107 µM
TGI (SF-295 CNS): 3.4 µM
TGI (KM12 colon): 11.3 µM
TGI (DLD-1 colon): 12.8 µM
TGI (EKVX NSCLC): 0.727 µM
TGI (CCRF-CEM leukemia): 0.677 µM
TGI (HCC-2998 colon): 11.4 µM
TGI (XF 498 CNS): 6.91 µM

Cc1cc(=O)c2c(O)cc3c(c2o1)CC=C(COC1OC(COC2OC(CO)C(O)C(O)C2O)C(O)C(O)C1O)CO3 (stereo unspecified)
TGI (MALME-3M melanoma): > 100 µM
TGI (HCT-15 colon): > 100 µM
TGI (KM20L2 colon): > 100 µM
TGI (DMS 273 small cell lung): > 100 µM
TGI (SF-295 CNS): > 100 µM
TGI (KM12 colon): > 100 µM
TGI (DLD-1 colon): > 100 µM
TGI (EKVX NSCLC): > 100 µM
TGI (NCI-H460 lung): > 100 µM
TGI (CCRF-CEM leukemia): > 100 µM
TGI (HCC-2998 colon): > 100 µM
TGI (XF 498 CNS): > 100 µM

N#CC1(C#N)C(c2ccccc2)C=CC12OCCCO2 (stereo unspecified)
TGI (MALME-3M melanoma): > 100 µM
TGI (KM20L2 colon): > 100 µM
TGI (DMS 273 small cell lung): > 100 µM
TGI (SF-295 CNS): > 100 µM
TGI (KM12 colon): > 100 µM
TGI (DLD-1 colon): 95.4 µM
TGI (EKVX NSCLC): > 100 µM
TGI (NCI-H460 lung): > 100 µM
TGI (CCRF-CEM leukemia): 88.7 µM
TGI (HCC-2998 colon): > 100 µM
TGI (XF 498 CNS): > 100 µM

c1ccc2c(c1)CCc1c-2n[nH]c1-c1[nH]nc2c1CCc1ccccc1-2
TGI (MALME-3M melanoma): > 100 µM
TGI (HCT-15 colon): > 100 µM
TGI (KM20L2 colon): > 100 µM
TGI (DMS 273 small cell lung): > 100 µM
TGI (SF-295 CNS): > 100 µM
TGI (KM12 colon): > 100 µM
TGI (DLD-1 colon): > 100 µM
TGI (EKVX NSCLC): > 100 µM
TGI (NCI-H460 lung): > 100 µM
TGI (CCRF-CEM leukemia): > 100 µM
TGI (HCC-2998 colon): > 100 µM
TGI (XF 498 CNS): > 100 µM

CCOC(=O)/C(I)=C/c1cc(OC)c(OC)c(OC)c1
TGI (MALME-3M melanoma): 26.2 µM
TGI (HCT-15 colon): 17.1 µM
TGI (KM20L2 colon): 12.4 µM
TGI (DMS 273 small cell lung): 22.7 µM
TGI (SF-295 CNS): 54.4 µM
TGI (KM12 colon): 19.2 µM
TGI (DLD-1 colon): 35.2 µM
TGI (EKVX NSCLC): 42.9 µM
TGI (NCI-H460 lung): > 100 µM
TGI (CCRF-CEM leukemia): 8.6 µM
TGI (HCC-2998 colon): 27.8 µM
TGI (XF 498 CNS): 27.5 µM

N[C@H](COCc1ccccc1)c1ccccc1
TGI (MALME-3M melanoma): > 93.6 µM
TGI (HCT-15 colon): > 79.4 µM
TGI (KM20L2 colon): 75.8 µM
TGI (DMS 273 small cell lung): 50 µM
TGI (SF-295 CNS): 82.5 µM
TGI (KM12 colon): > 100 µM
TGI (DLD-1 colon): > 100 µM
TGI (EKVX NSCLC): > 100 µM
TGI (NCI-H460 lung): 61.9 µM
TGI (CCRF-CEM leukemia): 56.6 µM
TGI (HCC-2998 colon): > 91.7 µM
TGI (XF 498 CNS): 48.3 µM
